Laboratory results reported in patent US11925646B2, “Agent for treating or preventing cancer, and combination of RF pathway inhibitor and MEK inhibitor for treating or preventing cancer” (NATIONAL UNIVERSITY CORPORATION HOKKAIDO UNIVERSITY, priority 2021, dated 2024).

How the values were obtained:
Capan-1 [1] = test: Spheroid formation in three-dimensional methylcellulose culture; assay type: cell-based, human; conditions: 10 μM RoF, 1 nM Tr, day 21 of culture
Description: (§1) The pancreatic cancer cell lines (AsPC-1 and Capan-1) having 4-hit mutation were three-dimensionally cultured in methylcellulose-containing media.
(§2) In a 24 well plate (upper layer: 1.8% methylcellulose, lower layer: 0.48% agarose), AsPC-1 was seeded at 5×10^3 cells/well (in 100 μL of the medium). After culturing for 1 day (day 1), DMSO (control), 10 μM roseoflavin (RoF), 1 nM trametinib (Tr), or 10 μM RoF+1 nM Tr was respectively added to the 24 well plate (final concentration of DMSO: 0.1%). After adding the agent solution, the resultant was cultured in the presence of 5% CO2 at 37° C., and a culture fluid was added on day 14. The resultant was further cultured, and each group was photographed on day 21 to measure the size and the number of spheroids. It is noted that the following media were used for culturing the respective cell lines: • AsPC-1: RPMI 1640 medium (Nakalai Tesque) supplemented with 10% fetal bovine serum (Gibco) and 1% penicillin-streptomycin (Nakalai Tesque) • Capan-1: IMDM medium (Iscove's Modified Dulbecco's Medium) (Nakalai Tesque) supplemented with 20% fetal bovine serum (Gibco) and 1% penicillin-streptomycin (Nakalai Tesque)

AsPC-1 = test: as above; assay type: cell-based, human; conditions: 10 μM RoF, 1 nM Tr, day 21 of culture
Description: as §1, §2

PANC-1 = test: MTS assay, relative survival rate with roseoflavin; assay type: cell-based, human; conditions: RoF 0.1 to 10 μM, 24, 48 or 72 hours, ratio to solvent control at 72 hours
Description: (§3) Human pancreatic cancer cells were treated with roseoflavin (RoF), and a relative survival rate was calculated assuming that mitochondrial respiratory chain activity corresponded to the survival rate.
(§4) Human pancreatic cancer cell lines, MIAPaCa-2, PANC-1, and Capan-1 were used for performing MTS assay with RoF. All the cell lines were obtained from ATCC. Each of the cell lines was cultured with the following medium in the presence of 5% CO2 at 37° C. • MIAPaCa-2: Dulbecco's Modified Eagle's Medium (Nakalai Tesque) supplemented with 10% fetal bovine serum (Gibco) and 1% penicillin-streptomycin (Nakalai Tesque) • PANC-1: RPMI 1640 medium (Nakalai Tesque) supplemented with 10% fetal bovine serum (Gibco) and 1% penicillin-streptomycin (Nakalai Tesque) • Capan-1: IMDM medium (Iscove's Modified Dulbecco's Medium) (Nakalai Tesque) supplemented with 20% fetal bovine serum (Gibco) and 1% penicillin-streptomycin (Nakalai Tesque)
(§5) Roseoflavin (RoF) was prepared to 0 μM (DMSO alone), 0.1 mM, 0.3 mM, 1 mM, 3 mM, and 10 mM, and the resultants were respectively diluted with the medium by 1000 times to obtain agent solutions (RoF final concentration: 0 μM, 0.1 μM, 0.3 μM, 1 μM, 3 μM and […]).
(§6) In a 96 well plate, MIAPaCa-2 was seeded at 500 cells/well, PANC-1 was seeded at 2,000 cells/well, and Capan-1 was seeded at 10,000 cells/well (in 100 μL of the medium). After these were cultured for 1 day, the RoF agent solution at each concentration was added to the cells in the 96 well plate in an amount of 10 μL each (final concentration of DMSO: 0.1%). Each combination was tested in 3 wells. After the addition of the agent solution, the resultant was cultured in the presence of 5% CO2 at 37° C. for 24, 48 or 72 hours, and a cell survival rate was measured with MTS Assay (Cell Titer 96®, Promega). The survival rate was expressed as a ratio to that of the control (solvent alone) cultured for 72 hours.

MIAPaCa-2 = test: MTS assay, relative survival rate with roseoflavin; assay type: cell-based, human; conditions: RoF 0.1 to 10 μM, 24, 48 or 72 hours, ratio to solvent control at 72 hours
Description: as §3, §4, §5, §6

Capan-1 [2] = test: MTS assay, relative survival rate with roseoflavin; assay type: cell-based, human; conditions: RoF 0.1 to 10 μM, 24, 48 or 72 hours, ratio to solvent control at 72 hours
Description: as §3, §4, §5, §6

RF pathway = test: Liquid chromatography mass spectrometry of RoF, RF, FMN and FAD within the cells; assay type: cell-based, human; conditions: MIAPaCa-2, PANC-1 and Capan-1; 10 μM RoF, 48 hours; vs DMSO control
4-hit flies (non-GFP) = test: Survival rate of 4-hit flies raised on agent diet; assay type: in vivo, Drosophila; conditions: in diet: 0.5 μM trametinib, 50 μM roseoflavin; raised at 25° C. for 13 days
Description: Roseoflavin and trametinib were dissolved in DMSO (Sigma) to be stored at −20° C.
Agar (Wako), brewers' yeast (MPBio), yeast extract (Sigma Aldrich), Bacto Casitone (BD), sucrose (Wako), glucose (Wako), MgCl2 (Wako), CaCl2) (Wako), propionic acid (Wako), Mold Inhibitor (10% methyl-4-hydroxy benzoate in 95% ethanol: Wako) were dissolved in ultrapure water to produce a standard diet. While this was being warmed at 50° C., an agent (trametinib alone, or a combination of roseoflavin and trametinib) dissolved in DMSO was added thereto to be mixed, and the resultant was cooled to prepare an agent diet. Final concentrations in the diet of the respective compounds were set to 0.5 μM for trametinib, and 50 μM for roseoflavin.
The UAS-RasG12D, UAS-p53 shRNA, UAS-CycE, UAS-Med shRNA fly produced in Example 1 was crossbred with a Ser-gal4 fly (Bloomington Drosophila Stock Center), and the parent flies were caused to lay eggs for 2 days on the standard diet or the agent diet, and thus, 20 to 50 eggs per vial, of Ser-gal4; UAS-RasG12D, UAS-p53 shRNA, UAS-CycE, UAS-Med shRNA 4-hit flies (non-GFP) were obtained. These eggs were raised at 25° C. for 13 days, and survival rate of the 4-hit flies (non-GFP) raised on each diet was calculated by dividing the number of eclosed individuals by the total number of pupae.

Row | Structure (SMILES) | number of spheroids of 0.1 mm or smaller (Capan-1 [1]) | spheroid formation, spheroids of 0.1 to 0.2 mm and larger than 0.2 mm (Capan-1 [1]) | spheroid formation, spheroids of 0.1 to 0.2 mm and larger than 0.2 mm (AsPC-1) | relative survival rate (mitochondrial respiratory chain activity) (PANC-1) | relative survival rate (mitochondrial respiratory chain activity) (MIAPaCa-2) | relative survival rate (mitochondrial respiratory chain activity) (Capan-1 [2]) | amount of FAD (flavin adenine dinucleotide) within the cells (RF pathway) | amount of FMN (flavin mononucleotide) within the cells (RF pathway) | amount of RF (riboflavin) within the cells (RF pathway) | improvement of survival rate of 4-hit flies (eclosed individuals / total pupae) (4-hit flies (non-GFP))
1 | Cc1cc2nc3c(=O)[nH]c(=O)nc-3n(C[C@H](O)[C@H](O)[C@H](O)CO)c2cc1N(C)C [roseoflavin] | increased | spheroid formation was suppressed | spheroid formation was suppressed | deteriorated mitochondrial respiratory chain activity in a dose dependent manner to decrease the relative survival rate | deteriorated mitochondrial respiratory chain activity in a dose dependent manner to decrease the relative survival rate | deteriorated mitochondrial respiratory chain activity in a dose dependent manner to decrease the relative survival rate | smaller than those in the control | smaller than those in the control | smaller than those in the control | –
2 | CC(=O)Nc1cccc(-n2c(=O)n(C3CC3)c(=O)c3c(Nc4ccc(I)cc4F)n(C)c(=O)c(C)c32)c1 [trametinib] | – | – | – | – | – | – | – | – | – | about 10%
